Test results as given in PubChem BioAssay AID1508612.

experiment: passive permeability, PAMPA, ADME assay (AID 1508612); conditions: pH 7.4, 30.0 min, 50.0 µM

Row | Structure (SMILES) | Papp [×10⁻⁶ cm/s]
1 | COc1ccc(-c2ccc3ncc(Nc4ccc(C(N)=O)cc4)n3n2)cc1OC | 149
2 | CC(C)Oc1ccc(CNC(=O)C2CCN(C(=O)N3CCOc4ccc(Cl)cc43)CC2)cc1 | 451
3 | COC(=O)c1ccc2c(C(=Nc3ccc(N(C)C(=O)CN4CCN(C)CC4)cc3)c3ccccc3)c(O)[nH]c2c1 | 12.5
4 | COc1ccc(Nc2cnc3ccc(-c4ccc(OC)c(OC)c4)nn23)cc1 | 396
5 | CN(Cc1ccc(/C=C/C(=O)NO)cc1)CC12CC3CC(CC(C3)C1)C2 | > 1000
6 | CCn1c(C(=O)N2CCCC(C(=O)NCCc3ccc(C)cc3)C2)cc2sccc21 (centres undefined) | > 1000
7 | Cc1ccc(S(=O)(=O)Nc2ccc(F)cc2C(=O)Nc2nc(-c3ccccc3)cs2)cc1 | 21.4
8 | CCOc1ccc(CCNC(=O)c2cc3sccc3n2Cc2ccncc2)cc1OCC | > 1000
9 | CC1(C)CC(=O)C2=C(C1)NC(Nc1nc3ccccc3o1)=NC2c1ccccc1Cl (centres undefined) | > 1000
10 | O=C(Nc1nc(-c2ccccc2)cs1)c1ccncc1NS(=O)(=O)c1ccc(F)c(F)c1 | > 1000
11 | NC(=O)C1CCN(c2nc(-c3cccnc3)cs2)CC1 | 23.2
12 | Fc1ccc(CNc2ncnc3onc(-c4ccc(F)cc4)c23)cc1 | > 1000
13 | O=C(Nc1ccc(-c2nc3cc(NC(=O)c4ccccc4Cl)ccc3o2)cc1)c1ccccc1Cl | 176
14 | COc1ccc(-c2csc(N3CCC(C(N)=O)CC3)n2)cc1 | 646
15 | O=C(Nc1nc(-c2ccccc2)cs1)c1ccncc1NS(=O)(=O)c1ccc(F)cc1Cl | > 1000
16 | COc1ccc(C2=Nn3c([n+](C)c4ccccc43)SC2)cc1 | < 1
17 | COc1ccc(-c2cnc(N3CCC(C(N)=O)CC3)s2)cc1OC | 336
18 | CCCCN1CCC[C@H]1CNC(=O)c1cc(C#N)c2ccccc2c1OC | > 1000
19 | C#C[C@]1(OC(C)=O)CC[C@H]2[C@@H]3CCC4=C/C(=N/O)CC[C@@H]4[C@H]3CC[C@@]21CC | 858
20 | CC1=C(C(=O)Nc2nc3ccccc3s2)C(c2[nH]ncc2Cl)N=C(Nc2nc3ccccc3o2)N1 (centres undefined) | 6
21 | COc1ccc(CCN2C(=O)N(c3ccc(F)cc3)C(=O)C2CC(=O)Nc2ccc(F)c(F)c2)cc1 (centres undefined) | 719
22 | COc1ccc(C2Nc3ccccc3C(=O)N2Cc2cccnc2)cc1COc1c(C)cc(NC(C)=O)cc1C (centres undefined) | > 1000
23 | Nc1nc2c(s1)C(c1ccccc1)CC(=O)N2 (centres undefined) | 19.3
24 | CCCS(=O)(=O)c1nc(NC2CC2)cc(-c2ccc3c(ccn3C3CC(C)(C)NC(C)(C)C3)c2)n1 | 107
25 | Clc1ccc2ncc(-c3cccc(NC4CNC4)n3)n2c1 | 182

Row | Structure (SMILES) | Papp [×10⁻⁶ cm/s]
26 | NC(=O)C(=O)N/N=C/c1ccc([N+](=O)[O-])o1 | 7.99
27 | Cc1cccc(-n2cnc3cc(C(=O)N4CCCCCC4)ccc32)c1 | > 1000
28 | Cc1ccnc(NC(=S)N2CCC(Nc3cccc(C(F)(F)F)c3)CC2)c1 | 835
29 | CC(=O)NCCNC(=O)c1ccc(-c2ncc3cnc(-c4cccc(F)c4)cn23)cc1 | 40.6
30 | CCOc1ccc(C(C)CNC(=O)c2cc3sccc3n2Cc2ccccc2)cc1OCC (centres undefined) | > 1000
31 | CN1C(=O)c2ccccc2[S@](=O)c2ccc(C(=O)NCc3ccc(Cl)cc3)cc21 | > 1000
32 | O=C(O)c1ccnc2cc(-c3nc4ccccc4n3CCN3CCCCC3)sc12 | 4
33 | COc1ccc(C(=O)CCN(C)C)cc1F | 410
34 | O=C1Nc2ccccc2/C1=C\c1ccc(C(=O)O)cc1 | 3.96
35 | COc1cccc(Cn2c(=O)n(-c3cccc(Cl)c3C)c(=O)c3c4c(sc32)CN(C(C)=O)CC4)c1 | > 1000
36 | O=C(Nc1nnc(-c2cccs2)o1)c1ccc(Cl)cc1 | 126
37 | CCOc1ccc(CCNC(=O)c2cc3ccccc3n2CCN2CCOCC2)cc1OCC | > 1000
38 | Cc1ccccc1C(=O)Nc1sc2c(c1C(=O)NCc1ccco1)CCC(C(C)(C)C)C2 (centres undefined) | 167
39 | COc1ccc(CN2CCN(C(=O)c3cc4c(s3)CCC4)CC2)cc1 | 997
40 | O=C1Nc2ccc(I)cc2C1=Cc1cc(Br)c(O)c(Br)c1 | 150
41 | Fc1cc(Nc2nc(-c3ccncc3)nc3ccccc23)ccc1-n1cncn1 | 171
42 | CC(=O)c1ccc(N2CCN(C(=O)c3ccc4c(c3)CC(=O)N4)CC2)cc1 | 40.5
43 | Nc1ncnc2c1ncn2[C@H]1O[C@@H](CO)[C@@H](O)[C@H]1N | 2.99
44 | C=CCc1cccc(CNc2ccc(S(=O)(=O)Nc3nccs3)cc2)c1O | 134
45 | O=C1C2=C(Nc3ccccc3SC2c2ccco2)c2ccccc21 (centres undefined) | 371
46 | O=C(Nc1nc(-c2ccccc2)cs1)c1ccncc1NS(=O)(=O)c1ccc(Cl)cc1 | 294
47 | Cc1cc(C)nc(NC(=S)N2CCN(c3ccc(Cl)cc3[N+](=O)[O-])CC2)c1 | > 1000
48 | CCS(=O)(=O)N1CC(CC#N)(n2cc(-c3ncnc4[nH]ccc34)cn2)C1 | 11.1
49 | CC(=O)N1CCC(NC(=O)c2nc(-c3ccccc3)cc3[nH]ccc23)CC1 | 288
50 | COc1cc2c(cc1Oc1cccc(N(C)C)c1)NC(=O)C21CCN(c2cnccn2)CC1 | > 1000

Row | Structure (SMILES) | Papp [×10⁻⁶ cm/s]
51 | CCNC(=O)c1ccc(-c2ccc3ncnc(NCC4CCCO4)c3c2)o1 (centres undefined) | 146
52 | COc1cc(N2CCC(N3CCN(C)CC3)CC2)ccc1Nc1ncc(Cl)c(Nc2ccccc2P(C)(C)=O)n1 | 266
53 | CC(C)c1c(-c2ccccc2)nc2c(C#N)c[nH]n2c1=O | 9.91
54 | CCOc1ccc(S(=O)(=O)NCc2cccnc2)cc1NC(=O)c1ccccc1F | 99
55 | COc1ccnc(NC(=S)N2CCN(c3cccc(C(F)(F)F)n3)CC2)c1 | > 1000
56 | Clc1ccccc1Nc1nc(-c2ccncc2)nc2ccccc12 | > 1000
57 | C[C@H]1CN(C(=O)Nc2ccc(F)cc2F)C[C@@H]1c1nc(-c2ccccc2)no1 | > 1000
58 | Cc1cc2c(-c3cccc(O)c3)nc(-c3c(C)noc3C)cc2[nH]1 | > 1000
59 | N#CC1(c2ccc(NC(=O)c3cccnc3NCc3ccncc3)cc2)CCCC1 | > 1000
60 | CC(C)CN(C[C@@H](O)[C@H](Cc1ccccc1)NC(=O)O[C@@H]1CO[C@H]2OCC[C@H]21)S(=O)(=O)c1ccc(N)cc1 | 192
61 | O=C(O)CCNc1cc(N2CCc3ccccc3CC2)nc(-c2ccccn2)n1 | < 1
62 | O=C(Nc1ccc(-c2ccccc2)cc1)[C@H](Cc1ccc(O[S+](=O)([O-])c2cccc3cnccc23)cc1)N[S+](=O)([O-])c1cccc2cnccc12 | 18.5
63 | O=C(CSc1ccccc1)Nc1nnc(COc2ccc(Cl)cc2)s1 | 498
64 | Cc1ccc(C)c(CN2C(=O)c3ccccc3S(=O)c3ccc(C(=O)N4CCN(c5ccccc5F)CC4)cc32)c1 (centres undefined) | > 1000
65 | CCOc1cc(=O)n2c(c1C(=O)Nc1cc(OC)c(Cl)cc1OC)CCCC2 | 96.6
66 | O=C(Oc1ccc[nH]c1=O)c1cc([N+](=O)[O-])cc([N+](=O)[O-])c1 | 16.2
67 | COc1ccc(CN2CCc3c(c(=O)n4ncc(C(=O)N5CCN(c6ccccc6OC)CC5)c4n3C)C2)cc1 | 445
68 | CC(C)c1ccc(OCc2nc3c(n2Cc2ccccc2)C(=O)N(CC2CCOCC2)CCN3)cc1 | > 1000
69 | CN(C)c1cccc(-c2ccnc(N3CCC(C(N)=O)CC3)n2)c1 | 333
70 | COCCn1ccc2c(C3=CCOCC3)nc(-c3ccc4c(c3)CNC4=O)cc21 | 71.7
71 | COc1cccc(OC)c1C(=O)Nc1ccccc1C(=O)Nc1cccc(C(F)(F)F)c1 | 899
72 | COc1ccc(C)cc1NC(=O)c1cnc(-c2ccc(F)cc2)nc1-c1ccncc1 | 130
73 | CC(C=CC(=O)NO)=C[C@@H](C)C(=O)c1ccc(N(C)C)cc1 | 335
74 | COc1ncccc1-c1cc2[nH]ccc2c(C(=O)NCc2c(C)cc(C)[nH]c2=O)n1 | 472
